ChEMBL document CHEMBL5291721, “A preclinical secondary pharmacology resource illuminates target-adverse drug reaction associations of marketed drugs” (Nat Commun, 2023)

How the values were obtained:
[1] = target: T1, Progesterone receptor (Homo sapiens, UniProt P06401); format: functional
T1 sequence (P06401 whole entry): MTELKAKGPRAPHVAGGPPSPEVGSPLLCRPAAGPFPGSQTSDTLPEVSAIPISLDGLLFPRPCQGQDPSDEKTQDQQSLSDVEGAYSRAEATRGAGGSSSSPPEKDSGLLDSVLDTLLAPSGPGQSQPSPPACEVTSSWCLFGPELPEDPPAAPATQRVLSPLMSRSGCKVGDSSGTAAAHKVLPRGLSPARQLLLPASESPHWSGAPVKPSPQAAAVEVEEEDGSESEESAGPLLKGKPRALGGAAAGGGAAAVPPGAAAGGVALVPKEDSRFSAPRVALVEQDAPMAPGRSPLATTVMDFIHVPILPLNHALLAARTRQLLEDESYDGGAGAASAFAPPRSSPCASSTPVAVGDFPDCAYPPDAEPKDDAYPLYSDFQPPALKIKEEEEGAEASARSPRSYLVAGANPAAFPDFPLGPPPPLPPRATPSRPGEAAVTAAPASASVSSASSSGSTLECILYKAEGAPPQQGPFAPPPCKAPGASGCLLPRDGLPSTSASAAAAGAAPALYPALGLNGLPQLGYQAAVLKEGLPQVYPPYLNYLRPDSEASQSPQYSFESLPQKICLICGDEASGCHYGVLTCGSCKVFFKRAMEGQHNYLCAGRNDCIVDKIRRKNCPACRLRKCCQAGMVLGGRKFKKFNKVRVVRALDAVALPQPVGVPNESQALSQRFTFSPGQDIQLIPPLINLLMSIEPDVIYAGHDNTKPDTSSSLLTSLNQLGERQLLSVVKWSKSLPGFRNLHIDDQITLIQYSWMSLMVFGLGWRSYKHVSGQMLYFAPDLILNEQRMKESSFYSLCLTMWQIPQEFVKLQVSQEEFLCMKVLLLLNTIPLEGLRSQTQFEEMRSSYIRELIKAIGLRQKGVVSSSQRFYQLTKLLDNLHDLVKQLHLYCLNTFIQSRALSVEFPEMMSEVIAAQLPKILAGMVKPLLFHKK

[2] = target: Histamine H2 receptor (Homo sapiens, UniProt P25021); format: functional, cell-based
[3] = target: Adenosine receptor A2a (Homo sapiens, UniProt P29274)
[4] = target: 5-hydroxytryptamine receptor 2B (Homo sapiens, UniProt P41595); format: functional, cell-based
[5] = target: T2, Amine oxidase [flavin-containing] A (Homo sapiens, UniProt P21397); format: functional
T2 sequence (P21397 whole entry): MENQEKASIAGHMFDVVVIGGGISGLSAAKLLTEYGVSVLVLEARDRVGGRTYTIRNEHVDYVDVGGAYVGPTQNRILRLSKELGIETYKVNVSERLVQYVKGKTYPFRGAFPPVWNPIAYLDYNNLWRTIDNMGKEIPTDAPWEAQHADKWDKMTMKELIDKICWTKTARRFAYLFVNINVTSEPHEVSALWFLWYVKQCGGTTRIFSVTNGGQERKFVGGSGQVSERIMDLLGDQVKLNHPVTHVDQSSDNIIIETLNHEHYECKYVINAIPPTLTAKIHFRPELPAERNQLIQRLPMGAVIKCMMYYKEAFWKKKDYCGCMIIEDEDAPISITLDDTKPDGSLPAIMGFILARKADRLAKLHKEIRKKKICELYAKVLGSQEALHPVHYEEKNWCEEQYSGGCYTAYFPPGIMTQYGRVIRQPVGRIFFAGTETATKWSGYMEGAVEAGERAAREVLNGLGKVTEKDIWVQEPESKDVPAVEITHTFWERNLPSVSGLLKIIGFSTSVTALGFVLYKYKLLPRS

[6] = target: T3, Muscarinic acetylcholine receptor M2 (Homo sapiens, UniProt P08172); format: functional, cell-based
T3 sequence (P08172 whole entry): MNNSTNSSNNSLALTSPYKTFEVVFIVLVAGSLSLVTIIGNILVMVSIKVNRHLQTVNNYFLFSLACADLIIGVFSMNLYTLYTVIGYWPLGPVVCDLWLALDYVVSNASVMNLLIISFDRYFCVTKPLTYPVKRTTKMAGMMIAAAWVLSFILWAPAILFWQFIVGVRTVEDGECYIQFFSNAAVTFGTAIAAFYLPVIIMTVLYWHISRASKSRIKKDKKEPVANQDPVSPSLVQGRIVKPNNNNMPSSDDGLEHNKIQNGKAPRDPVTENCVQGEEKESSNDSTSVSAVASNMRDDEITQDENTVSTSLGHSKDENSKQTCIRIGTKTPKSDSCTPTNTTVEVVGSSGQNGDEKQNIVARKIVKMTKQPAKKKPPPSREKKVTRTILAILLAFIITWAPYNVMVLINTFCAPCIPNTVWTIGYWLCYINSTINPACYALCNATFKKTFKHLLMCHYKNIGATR

[7] = target: Glutamate receptor ionotropic, NMDA 1 (Rattus norvegicus, UniProt P35439)
[8] = target: T4, Thromboxane A2 receptor (Homo sapiens, UniProt P21731)
T4 sequence (P21731 whole entry): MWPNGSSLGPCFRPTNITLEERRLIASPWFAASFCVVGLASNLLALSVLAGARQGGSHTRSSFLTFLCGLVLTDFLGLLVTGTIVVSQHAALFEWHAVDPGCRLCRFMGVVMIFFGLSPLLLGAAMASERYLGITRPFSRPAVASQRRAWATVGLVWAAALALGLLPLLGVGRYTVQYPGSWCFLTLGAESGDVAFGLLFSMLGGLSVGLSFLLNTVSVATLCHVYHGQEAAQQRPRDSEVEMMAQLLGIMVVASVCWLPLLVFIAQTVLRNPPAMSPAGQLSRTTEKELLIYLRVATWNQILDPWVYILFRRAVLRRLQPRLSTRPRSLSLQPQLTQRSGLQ

[9] = target: Vascular endothelial growth factor receptor 2 (Homo sapiens, UniProt P35968); format: functional
Also: assay procedure not described here.

Sequence of Vascular endothelial growth factor receptor 2 (P35968 whole entry): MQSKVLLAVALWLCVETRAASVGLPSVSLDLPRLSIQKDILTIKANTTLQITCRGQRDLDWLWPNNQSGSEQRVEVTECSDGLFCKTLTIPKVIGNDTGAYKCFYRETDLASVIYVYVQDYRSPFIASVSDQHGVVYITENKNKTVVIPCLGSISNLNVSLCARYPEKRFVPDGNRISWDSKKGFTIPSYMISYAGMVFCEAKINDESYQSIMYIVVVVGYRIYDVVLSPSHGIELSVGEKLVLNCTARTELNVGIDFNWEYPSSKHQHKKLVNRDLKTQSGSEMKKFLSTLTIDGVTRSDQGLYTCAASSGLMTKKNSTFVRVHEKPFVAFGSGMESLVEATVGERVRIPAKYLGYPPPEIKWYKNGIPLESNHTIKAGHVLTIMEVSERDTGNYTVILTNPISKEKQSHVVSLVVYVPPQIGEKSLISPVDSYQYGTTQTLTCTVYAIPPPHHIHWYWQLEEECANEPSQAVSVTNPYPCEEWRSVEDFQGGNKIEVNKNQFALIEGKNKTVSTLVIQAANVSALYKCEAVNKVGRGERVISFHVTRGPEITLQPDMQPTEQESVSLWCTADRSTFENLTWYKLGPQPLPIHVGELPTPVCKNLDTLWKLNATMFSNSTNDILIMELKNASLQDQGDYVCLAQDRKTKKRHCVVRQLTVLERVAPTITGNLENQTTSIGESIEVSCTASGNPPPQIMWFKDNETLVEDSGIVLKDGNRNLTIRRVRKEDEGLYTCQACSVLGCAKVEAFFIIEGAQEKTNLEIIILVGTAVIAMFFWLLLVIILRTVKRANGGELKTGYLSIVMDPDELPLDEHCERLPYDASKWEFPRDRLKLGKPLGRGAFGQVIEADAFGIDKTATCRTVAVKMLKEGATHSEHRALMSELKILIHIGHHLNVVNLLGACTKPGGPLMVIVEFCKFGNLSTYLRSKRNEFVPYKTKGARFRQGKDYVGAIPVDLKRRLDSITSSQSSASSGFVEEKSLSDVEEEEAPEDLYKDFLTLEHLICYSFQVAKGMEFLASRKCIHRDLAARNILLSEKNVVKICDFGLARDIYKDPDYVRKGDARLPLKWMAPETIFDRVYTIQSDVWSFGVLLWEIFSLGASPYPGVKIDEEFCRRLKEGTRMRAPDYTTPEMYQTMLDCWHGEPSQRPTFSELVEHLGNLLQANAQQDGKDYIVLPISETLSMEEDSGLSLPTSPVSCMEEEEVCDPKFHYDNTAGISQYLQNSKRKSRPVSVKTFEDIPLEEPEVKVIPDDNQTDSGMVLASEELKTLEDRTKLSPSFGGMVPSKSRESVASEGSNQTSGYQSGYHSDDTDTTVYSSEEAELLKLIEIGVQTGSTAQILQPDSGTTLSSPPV
Sequence of Histamine H2 receptor (P25021 whole entry): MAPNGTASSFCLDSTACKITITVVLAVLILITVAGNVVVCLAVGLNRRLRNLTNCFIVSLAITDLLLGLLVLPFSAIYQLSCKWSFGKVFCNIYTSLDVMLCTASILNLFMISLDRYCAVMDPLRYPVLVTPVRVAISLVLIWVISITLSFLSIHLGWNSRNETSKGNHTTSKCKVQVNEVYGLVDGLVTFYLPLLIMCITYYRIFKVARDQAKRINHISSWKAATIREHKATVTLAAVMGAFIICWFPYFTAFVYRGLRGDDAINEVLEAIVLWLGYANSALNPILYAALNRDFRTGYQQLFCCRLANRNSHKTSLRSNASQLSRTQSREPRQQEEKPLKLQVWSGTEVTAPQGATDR
Sequence of Adenosine receptor A2a (P29274 whole entry): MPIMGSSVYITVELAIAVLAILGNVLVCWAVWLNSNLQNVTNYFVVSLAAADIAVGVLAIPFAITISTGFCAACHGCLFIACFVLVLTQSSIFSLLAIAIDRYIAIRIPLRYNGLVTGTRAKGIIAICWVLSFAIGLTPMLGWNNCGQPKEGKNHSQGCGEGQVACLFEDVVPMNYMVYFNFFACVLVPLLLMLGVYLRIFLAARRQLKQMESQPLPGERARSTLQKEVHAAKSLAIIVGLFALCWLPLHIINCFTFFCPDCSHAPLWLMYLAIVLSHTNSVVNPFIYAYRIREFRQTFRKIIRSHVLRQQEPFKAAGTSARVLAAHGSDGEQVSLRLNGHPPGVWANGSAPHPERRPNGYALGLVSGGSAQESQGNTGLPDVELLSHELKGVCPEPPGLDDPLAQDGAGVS
Sequence of 5-hydroxytryptamine receptor 2B (P41595 whole entry): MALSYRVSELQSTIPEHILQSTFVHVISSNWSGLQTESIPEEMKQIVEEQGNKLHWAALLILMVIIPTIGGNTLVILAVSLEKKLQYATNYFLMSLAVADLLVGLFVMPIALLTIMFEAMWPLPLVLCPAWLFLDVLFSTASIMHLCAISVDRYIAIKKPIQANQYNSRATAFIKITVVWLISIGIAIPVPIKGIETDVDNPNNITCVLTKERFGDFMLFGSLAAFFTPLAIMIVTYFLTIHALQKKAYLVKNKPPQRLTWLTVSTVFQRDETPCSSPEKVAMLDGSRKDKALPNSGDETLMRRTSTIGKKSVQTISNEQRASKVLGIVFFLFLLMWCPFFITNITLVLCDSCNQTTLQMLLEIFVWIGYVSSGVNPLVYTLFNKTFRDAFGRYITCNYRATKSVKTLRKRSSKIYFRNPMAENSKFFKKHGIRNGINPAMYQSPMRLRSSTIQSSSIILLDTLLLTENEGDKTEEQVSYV

| Molecule | AC50 [1] | AC50 [2] | AC50 [3] | AC50 [4] | AC50 [5] | AC50 [6] | AC50 [7] | AC50 [8] | AC50 [9] |
| --- | --- | --- | --- | --- | --- | --- | --- | --- | --- |
| HYDROXOCOBALAMIN | > 30 µM | > 30 µM | > 30 µM | > 30 µM | > 30 µM | > 30 µM | > 30 µM | > 30 µM |  |
| CN(C)c1ccc(C(=C2C=CC(=[N+](C)C)C=C2)c2ccc(N(C)C)cc2)cc1 [GENTIAN VIOLET] |  |  |  |  |  |  |  |  | 2.97 µM |
